“Also recorded” adds a separate entry of the source.
Experiments:
[1] = Stability on standing of amorphous form from DSC melt/crash cooling (XRPD); assay type: physicochemical; conditions: amorphous free base from melt/crash cooling (>185 °C/30 °C)
[2] = Plasma pharmacokinetics and bioavailability in rats, oral gavage and intravenous (bolus); conditions: rat plasma, Group 1, IV, psilocin + psilocin-d10 1 + 1 mg/kg; label = analyte; IAD = immediately after dosing
[3] = Psilocin-d10 pharmacokinetics in female beagle dogs, oral gavage and intravenous (bolus); conditions: for AUC(0-inf) / AUC(0-t) / C0 / clearance / Cmax / Tmax / Vd / half-life / bioavailability: female, beagle, dog, plasma; for AUC(0-inf): AUC0-inf; for C0: C0, female dog plasma
[4] = Pharmacokinetics in male beagle dogs after oral administration by powder in capsule (PIC) or orally disintegrating tablet (ODT); conditions: dog, plasma, 5 mg
[5] = female dog plasma, single IV bolus 0.20 mg/kg, Mean (N=3)
[6] = female dog plasma, single IV bolus 0.20 mg/kg, Median (N=3)
[7] = female dog plasma, single IV bolus 0.20 mg/kg, animal 60F
[8] = female dog plasma, single IV bolus 0.20 mg/kg, animal 61F
[9] = female dog plasma, single IV bolus 0.20 mg/kg, animal 723F
[10] = female dog plasma, single oral gavage 1.00 mg/kg, Mean (N=3)
[11] = female dog plasma, single oral gavage 1.00 mg/kg, Median (N=3)
[12] = female dog plasma, single oral gavage 1.00 mg/kg, animal 60F
[13] = female dog plasma, single oral gavage 1.00 mg/kg, animal 61F
[14] = female dog plasma, single oral gavage 1.00 mg/kg, animal 723F
[15] = iv, 0.2 mg/kg, female dog plasma, single IV bolus 0.20 mg/kg, Mean (N=3)
[16] = iv, 0.2 mg/kg, female dog plasma, single IV bolus 0.20 mg/kg, animal 61F
[17] = po, 1 mg/kg, female dog plasma, single oral gavage 1.00 mg/kg, Mean (N=3)
[18] = po, 1 mg/kg, female dog plasma, single oral gavage 1.00 mg/kg, Median (N=3)
[19] = po, 1 mg/kg, female dog plasma, single oral gavage 1.00 mg/kg, animal 60F
[20] = po, 1 mg/kg, female dog plasma, single oral gavage 1.00 mg/kg, animal 61F
[21] = po, 1 mg/kg, female dog plasma, single oral gavage 1.00 mg/kg, animal 723F

## [2H]C([2H])([2H])N(C([2H])([2H])[2H])C([2H])([2H])C([2H])([2H])c1c[nH]c2cccc(O)c12 [Compound I-3, 3-(2-(bis(methyl-d3)amino)ethyl-1,1,2,2-d4)-1H-indol-4-ol]
[1]
  stability of amorphous form on standing: crystallized overnight to crystal polymorph pattern 2; also recorded: unstable upon standing
[2]
  Tmax: IAD
[3]; dogs, oral administration
  time of last detectable plasma level: 8 h
  time of peak plasma levels: 0.5 h
[3]; [5]
  DN AUC0-inf: 448 (h*ng/mL)/(mg/kg)
  DN Cmax: 229 (ng/mL)/(mg/kg)
[3]; [6]
  DN AUC0-inf: 479 (h*ng/mL)/(mg/kg)
  DN Cmax: 230 (ng/mL)/(mg/kg)
[3]; [7]
  DN AUC0-inf: 366 (h*ng/mL)/(mg/kg)
  DN Cmax: 230 (ng/mL)/(mg/kg)
[3]; [8]
  DN AUC0-inf: 479 (h*ng/mL)/(mg/kg)
  DN Cmax: 220 (ng/mL)/(mg/kg)
[3]; [9]
  DN AUC0-inf: 500 (h*ng/mL)/(mg/kg)
  DN Cmax: 239 (ng/mL)/(mg/kg)
[3]; [10]
  DN AUC0-inf: 405 (h*ng/mL)/(mg/kg)
  DN Cmax: 146 (ng/mL)/(mg/kg)
[3]; [11]
  DN AUC0-inf: 414 (h*ng/mL)/(mg/kg)
  DN Cmax: 132 (ng/mL)/(mg/kg)
[3]; [12]
  DN AUC0-inf: 374 (h*ng/mL)/(mg/kg)
  DN Cmax: 132 (ng/mL)/(mg/kg)
[3]; [13]
  DN AUC0-inf: 414 (h*ng/mL)/(mg/kg)
  DN Cmax: 179 (ng/mL)/(mg/kg)
[3]; [14]
  DN AUC0-inf: 426 (h*ng/mL)/(mg/kg)
  DN Cmax: 126 (ng/mL)/(mg/kg)
[3]; [15]
  AUC(0-inf): 89.6 ng·h/mL
  Tmax: 0.333 h
[3]; iv, 0.2 mg/kg, female dog plasma, single IV bolus 0.20 mg/kg, Median (N=3)
  AUC(0-inf): 95.8 ng·h/mL
[3]; iv, 0.2 mg/kg, female dog plasma, single IV bolus 0.20 mg/kg, animal 60F
  AUC(0-inf): 73.3 ng·h/mL
[3]; [16]
  AUC(0-inf): 95.8 ng·h/mL
  Tmax: 0.5 h
[3]; iv, 0.2 mg/kg, female dog plasma, single IV bolus 0.20 mg/kg, animal 723F
  AUC(0-inf): 99.9 ng·h/mL
[3]; iv, 0.2 mg/kg, AUC0-t, female dog plasma, single IV bolus 0.20 mg/kg, Mean (N=3)
  AUC(0-t): 77.8 ng·h/mL
[3]; iv, 0.2 mg/kg, AUC0-t, female dog plasma, single IV bolus 0.20 mg/kg, Median (N=3)
  AUC(0-t): 80.7 ng·h/mL
[3]; iv, 0.2 mg/kg, AUC0-t, female dog plasma, single IV bolus 0.20 mg/kg, animal 60F
  AUC(0-t): 67 ng·h/mL
[3]; iv, 0.2 mg/kg, AUC0-t, female dog plasma, single IV bolus 0.20 mg/kg, animal 61F
  AUC(0-t): 80.7 ng·h/mL
[3]; iv, 0.2 mg/kg, AUC0-t, female dog plasma, single IV bolus 0.20 mg/kg, animal 723F
  AUC(0-t): 85.8 ng·h/mL
[3]; iv, 0.2 mg/kg, single IV bolus 0.20 mg/kg, Mean (N=3)
  C0: 57.3 ng/mL
[3]; iv, 0.2 mg/kg, single IV bolus 0.20 mg/kg, Median (N=3)
  C0: 62 ng/mL
[3]; iv, 0.2 mg/kg, single IV bolus 0.20 mg/kg, animal 60F
  C0: 69.5 ng/mL
[3]; iv, 0.2 mg/kg, single IV bolus 0.20 mg/kg, animal 61F
  C0: 40.5 ng/mL
[3]; iv, 0.2 mg/kg, single IV bolus 0.20 mg/kg, animal 723F
  C0: 62 ng/mL
[3]; iv, 0.2 mg/kg, CL, female dog plasma, single IV bolus 0.20 mg/kg, Mean (N=3)
  clearance: 37.8 mL/min/kg
[3]; iv, 0.2 mg/kg, CL, female dog plasma, single IV bolus 0.20 mg/kg, animal 60F
  clearance: 45.5 mL/min/kg
[3]; iv, 0.2 mg/kg, CL, female dog plasma, single IV bolus 0.20 mg/kg, animal 723F
  clearance: 33.3 mL/min/kg
[3]; iv, 0.2 mg/kg, Clearance (CL), dogs
  clearance: 37.8 mL/min/kg
[3]; iv, 0.2 mg/kg, Cmax, female dog plasma, single IV bolus 0.20 mg/kg, Mean (N=3)
  Cmax: 45.8 ng/mL
[3]; iv, 0.2 mg/kg, Cmax, female dog plasma, single IV bolus 0.20 mg/kg, Median (N=3)
  Cmax: 45.9 ng/mL
[3]; iv, 0.2 mg/kg, Cmax, female dog plasma, single IV bolus 0.20 mg/kg, animal 60F
  Cmax: 45.9 ng/mL
[3]; iv, 0.2 mg/kg, Cmax, female dog plasma, single IV bolus 0.20 mg/kg, animal 61F
  Cmax: 43.9 ng/mL
[3]; iv, 0.2 mg/kg, Cmax, female dog plasma, single IV bolus 0.20 mg/kg, animal 723F
  Cmax: 47.7 ng/mL
[3]; iv, 0.2 mg/kg, Vss, female dog plasma, single IV bolus 0.20 mg/kg, Mean (N=3)
  Vd: 4.01 L/kg
[3]; iv, 0.2 mg/kg, Vss, female dog plasma, single IV bolus 0.20 mg/kg, Median (N=3)
  Vd: 3.96 L/kg
[3]; iv, 0.2 mg/kg, Vss, female dog plasma, single IV bolus 0.20 mg/kg, animal 60F
  Vd: 3.96 L/kg
[3]; iv, 0.2 mg/kg, Vss, female dog plasma, single IV bolus 0.20 mg/kg, animal 61F
  Vd: 4.28 L/kg
[3]; iv, 0.2 mg/kg, Vss, female dog plasma, single IV bolus 0.20 mg/kg, animal 723F
  Vd: 3.79 L/kg
[3]; iv, 0.2 mg/kg, elimination half-life, dogs
  half-life: 1.35 h
[3]; iv, 0.2 mg/kg, mean AUC0-t, female dog plasma, single intravenous (bolus) dose
  AUC(0-t): 77.8 ng·h/mL
[3]; iv, 0.2 mg/kg, mean Cmax, female dog plasma, single intravenous (bolus) dose
  Cmax: 45.8 ng/mL
[3]; iv, 0.2 mg/kg, t1/2, female dog plasma, single IV bolus 0.20 mg/kg, Mean (N=3)
  half-life: 1.37 h
[3]; iv, 0.2 mg/kg, t1/2, female dog plasma, single IV bolus 0.20 mg/kg, Median (N=3)
  half-life: 1.41 h
[3]; iv, 0.2 mg/kg, t1/2, female dog plasma, single IV bolus 0.20 mg/kg, animal 60F
  half-life: 1.16 h
[3]; iv, 0.2 mg/kg, t1/2, female dog plasma, single IV bolus 0.20 mg/kg, animal 61F
  half-life: 1.55 h
[3]; iv, 0.2 mg/kg, t1/2, female dog plasma, single IV bolus 0.20 mg/kg, animal 723F
  half-life: 1.41 h
[3]; iv, 0.2 mg/kg, volume of distribution at steady state (VSS), dogs, intravenous
  Vd: 4.01 L/kg
[3]; [17]
  AUC(0-inf): 405 ng·h/mL
  Tmax: 0.5 h
[3]; [18]
  AUC(0-inf): 414 ng·h/mL
  Tmax: 0.5 h
[3]; [19]
  AUC(0-inf): 374 ng·h/mL
  Tmax: 0.5 h
[3]; [20]
  AUC(0-inf): 414 ng·h/mL
  Tmax: 0.5 h
[3]; [21]
  AUC(0-inf): 426 ng·h/mL
  Tmax: 0.5 h
[3]; po, 1 mg/kg, AUC0-t, female dog plasma, single oral gavage 1.00 mg/kg, Mean (N=3)
  AUC(0-t): 387 ng·h/mL
[3]; po, 1 mg/kg, AUC0-t, female dog plasma, single oral gavage 1.00 mg/kg, Median (N=3)
  AUC(0-t): 399 ng·h/mL
[3]; po, 1 mg/kg, AUC0-t, female dog plasma, single oral gavage 1.00 mg/kg, animal 61F
  AUC(0-t): 399 ng·h/mL
[3]; po, 1 mg/kg, AUC0-t, female dog plasma, single oral gavage 1.00 mg/kg, animal 723F
  AUC(0-t): 404 ng·h/mL
[3]; po, 1 mg/kg, Cmax, female dog plasma, single oral gavage 1.00 mg/kg, Mean (N=3)
  Cmax: 146 ng/mL
[3]; po, 1 mg/kg, Cmax, female dog plasma, single oral gavage 1.00 mg/kg, Median (N=3)
  Cmax: 132 ng/mL
[3]; po, 1 mg/kg, Cmax, female dog plasma, single oral gavage 1.00 mg/kg, animal 60F
  Cmax: 132 ng/mL
[3]; po, 1 mg/kg, Cmax, female dog plasma, single oral gavage 1.00 mg/kg, animal 61F
  Cmax: 179 ng/mL
[3]; po, 1 mg/kg, Cmax, female dog plasma, single oral gavage 1.00 mg/kg, animal 723F
  Cmax: 126 ng/mL
[3]; po, 1 mg/kg, F (Bioavailability), female dog plasma, single oral gavage 1.00 mg/kg, Mean (N=3)
  bioavailability: 91.3%
[3]; po, 1 mg/kg, F (Bioavailability), female dog plasma, single oral gavage 1.00 mg/kg, Median (N=3)
  bioavailability: 186%
[3]; po, 1 mg/kg, F (Bioavailability), female dog plasma, single oral gavage 1.00 mg/kg, animal 60F
  bioavailability: 102%
[3]; po, 1 mg/kg, F (Bioavailability), female dog plasma, single oral gavage 1.00 mg/kg, animal 61F
  bioavailability: 86.5%
[3]; po, 1 mg/kg, F (Bioavailability), female dog plasma, single oral gavage 1.00 mg/kg, animal 723F
  bioavailability: 85.2%
[3]; po, 1 mg/kg, elimination half-life, dogs
  half-life: 1.77 h
[3]; po, 1 mg/kg, mean AUC0-t, female dog plasma, single oral (gavage) dose
  AUC(0-t): 387 ng·h/mL
[3]; po, 1 mg/kg, mean Cmax, female dog plasma, single oral (gavage) dose
  Cmax: 146 ng/mL
[3]; po, 1 mg/kg, mean oral bioavailability (%F), dogs, oral 1 mg/kg
  bioavailability: 91.3%
[3]; po, 1 mg/kg, t1/2, female dog plasma, single oral gavage 1.00 mg/kg, Mean (N=3)
  half-life: 1.77 h
[3]; po, 1 mg/kg, t1/2, female dog plasma, single oral gavage 1.00 mg/kg, Median (N=3)
  half-life: 1.8 h
[3]; po, 1 mg/kg, t1/2, female dog plasma, single oral gavage 1.00 mg/kg, animal 60F
  half-life: 1.82 h
[3]; po, 1 mg/kg, t1/2, female dog plasma, single oral gavage 1.00 mg/kg, animal 61F
  half-life: 1.69 h
[3]; po, 1 mg/kg, t1/2, female dog plasma, single oral gavage 1.00 mg/kg, animal 723F
  half-life: 1.8 h
[4]
  Tmax: 0.5 h
[4]; oral
  Tmax: 1 h
